Our source for the TGI and GI50 values is PubChem BioAssay (NCI).

Some test systems named below: LOX IMVI melanoma; HCT-116 colon; KM12 colon; U251 CNS; UACC-62 melanoma; COLO 205 colon; ACHN renal; HOP-92 NSCLC; NCI-H226 lung; CAKI-1 renal.
Holding throughout (test): NCI-60 cell line screen, 48 h

Several values for one entry are separate records, joined by “and”; a condition that tells them apart may be missing. Equal entries are not always repeated.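 Exposure lasted 48 hours, with cells grown in 96-well plates and compounds tested at five concentrations. Here, GI50 denotes the concentration required for 50% inhibition of growth. TGI: concentration producing complete growth inhibition.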

As for `CN1CCC(=O)/C(=C/c2ccccc2)C1`, the TGI with LOX IMVI melanoma is 14.6 µM; in the assay with HCT-116 colon, 3.25 µM; in the assay on KM12 colon it was 5.28 µM; with U251 CNS, 19.1 µM; in the assay on UACC-62 melanoma, 36.9 µM; with COLO 205 colon it was 28.3 µM. In addition, the TGI was 32.4 µM in the assay with ACHN renal, 31.9 µM with HOP-92 NSCLC, 32.2 µM with NCI-H226 lung and 33.9 µM in the assay on CAKI-1 renal.
For the molecule `CN(C)C(=S)/N=c1\sn(C)/c(=N\C(=S)N(C)C)n1C`, the TGI in the assay with LOX IMVI melanoma, in the assay on HCT-116 colon, in the assay on KM12 colon, in the assay on U251 CNS, in the assay on UACC-62 melanoma and with COLO 205 colon was more than 100 µM in each case. The TGI with ACHN renal, in the assay on HOP-92 NSCLC, in the assay with NCI-H226 lung and in the assay with CAKI-1 renal was more than 100 µM each time.
With `NS(=O)(=O)c1ccc(N=Nc2c(O)c(C(=O)O)cc3ccccc23)cc1`, the TGI in the assay with LOX IMVI melanoma was more than 100 µM; in the assay on HCT-116 colon it was more than 100 µM; in the assay on KM12 colon it was more than 100 µM; with U251 CNS, more than 100 µM; in the assay with UACC-62 melanoma it was more than 100 µM; in the assay with COLO 205 colon, more than 84.2 µM. The TGI with ACHN renal, with HOP-92 NSCLC, in the assay on NCI-H226 lung and in the assay with CAKI-1 renal was more than 100 µM throughout.
As for `NC(N)=N/N=C/c1c(Cl)cccc1Cl`, the GI50 in the assay with LOX IMVI melanoma is 14.4 µM; in the assay with HCT-116 colon, 17.2 µM; with KM12 colon, 19.9 µM; with U251 CNS, 16.3 µM; with UACC-62 melanoma, 18 µM; in the assay with COLO 205 colon, 17.2 µM. Moreover, the GI50 in the assay on ACHN renal is 25.4 µM; with HOP-92 NSCLC, 6.66 µM; with NCI-H226 lung it was 24.1 µM; in the assay with CAKI-1 renal it was 23 µM. Further, the TGI was 30.1 µM in the assay on LOX IMVI melanoma; 36.1 µM in the assay with HCT-116 colon; 59.1 µM with KM12 colon; 33.7 µM with U251 CNS; 37.3 µM in the assay with UACC-62 melanoma; 32.1 µM in the assay on COLO 205 colon. Also, the TGI in the assay on ACHN renal is more than 100 µM; in the assay on HOP-92 NSCLC, 32.7 µM; in the assay on NCI-H226 lung it was more than 100 µM; in the assay on CAKI-1 renal, 95.3 µM.
Take `CC12CCC(=O)C[C@H]1CCC(OC=O)C2Br` (stereo partly specified): the TGI with LOX IMVI melanoma, with HCT-116 colon, in the assay on KM12 colon, in the assay with U251 CNS, with UACC-62 melanoma and with COLO 205 colon was more than 100 µM throughout. The TGI with ACHN renal, in the assay on HOP-92 NSCLC, with NCI-H226 lung and in the assay on CAKI-1 renal was more than 100 µM each time.
Regarding `COC(=O)C(=Cc1cc(OC)c(OC)c(OC)c1-c1cc2c(cc1C1(C)OCCS1)OCO2)C(=O)OC` (stereo unspecified), the TGI in the assay with LOX IMVI melanoma is more than 100 µM; in the assay with HCT-116 colon, more than 100 µM; with KM12 colon it was 79.8 µM; in the assay on U251 CNS it was more than 100 µM; in the assay with UACC-62 melanoma, more than 100 µM; with COLO 205 colon, more than 100 µM. The TGI was more than 100 µM in the assay on ACHN renal, 37.6 µM in the assay on HOP-92 NSCLC, more than 100 µM with NCI-H226 lung and more than 100 µM with CAKI-1 renal.
On to `COc1cc(OC)c2c(=O)cc(-c3ccc(OC)c(OC)c3OC)oc2c1`, for which the TGI in the assay with LOX IMVI melanoma, in the assay with HCT-116 colon, in the assay with KM12 colon, with UACC-62 melanoma, in the assay with COLO 205 colon and in the assay with ACHN renal was more than 100 µM each time. For the same molecule, the TGI with HOP-92 NSCLC, with NCI-H226 lung and in the assay on CAKI-1 renal was more than 100 µM in each case.
Turning to `CCn1c(O)c(/C=N/NC(=O)C(C)c2ccc(CC(C)C)cc2)sc1=S` (stereo unspecified), the GI50 in the assay with LOX IMVI melanoma was 0.594 µM; with HCT-116 colon, 0.397 µM; in the assay with KM12 colon, 0.371 µM; with U251 CNS, 0.399 µM; in the assay with UACC-62 melanoma, 0.435 µM; in the assay with COLO 205 colon, 1.23 µM. Further, the GI50 is 0.813 µM in the assay on ACHN renal, 0.806 µM in the assay on HOP-92 NSCLC, 0.797 µM in the assay on NCI-H226 lung and 0.331 µM with CAKI-1 renal. Further, the TGI in the assay with LOX IMVI melanoma is more than 36.1 µM; with HCT-116 colon, more than 36.9 µM; in the assay with KM12 colon it was more than 32.8 µM; with U251 CNS, more than 38 µM; in the assay with UACC-62 melanoma it was 15 µM; in the assay on COLO 205 colon, 9.04 µM. Further, the TGI with ACHN renal is more than 38.8 µM; with HOP-92 NSCLC it was 9.65 µM; with NCI-H226 lung, more than 21.4 µM; in the assay with CAKI-1 renal, more than 33.7 µM.
In the case of `O=C1N=C2Sc3ccc4ccccc4c3N2C1=O`, the TGI with LOX IMVI melanoma was 38.2 µM; in the assay on HCT-116 colon, 32.9 µM; in the assay with KM12 colon, more than 100 µM; in the assay on U251 CNS, 39.6 µM; in the assay with UACC-62 melanoma, more than 100 µM; with COLO 205 colon, more than 100 µM. Besides, the TGI in the assay on ACHN renal amounted to 82.3 µM; in the assay on HOP-92 NSCLC, 30.6 µM; in the assay on NCI-H226 lung, 57 µM; in the assay with CAKI-1 renal, 46.2 µM.
Consider `C/C(N=NC(=S)N1CC2CCC(CC2)C1)=C1\C=CC=CN1O`, for which the TGI in the assay with LOX IMVI melanoma is more than 50.7 µM; with HCT-116 colon, 30.5 µM; in the assay on KM12 colon, more than 31.6 µM; with U251 CNS it was more than 61.4 µM; with UACC-62 melanoma, 29.3 µM; in the assay with COLO 205 colon, 38.4 µM. Moreover, the TGI was 30.7 µM in the assay with ACHN renal, 54.5 µM with HOP-92 NSCLC, 21.7 µM in the assay with NCI-H226 lung and more than 100 µM with CAKI-1 renal.
With `COC(=O)/C(=C/c1ccc(OC)cc1)C(C(=O)O)=C1CCCC1`, the TGI in the assay with LOX IMVI melanoma, with HCT-116 colon, in the assay on KM12 colon, with U251 CNS, in the assay on UACC-62 melanoma and in the assay with COLO 205 colon was more than 100 µM each time. For the same molecule, the TGI in the assay with ACHN renal, with HOP-92 NSCLC, with NCI-H226 lung and in the assay with CAKI-1 renal was more than 100 µM in each case.
Consider `CCCC(=O)Nc1cn(COC)c(C(=O)N2C[C@@H]3C[C@]34C2=CC(=O)c2[nH]cc(C)c24)n1`, for which the TGI is 21.9 µM and 53.8 µM in the assay on LOX IMVI melanoma; 50 µM and 82.4 µM with HCT-116 colon; > 5 µM and 24.5 µM in the assay on KM12 colon; 50 µM and 21.1 µM with U251 CNS; 16.8 µM and 24.9 µM in the assay on UACC-62 melanoma; 16.6 µM and 23.7 µM in the assay with COLO 205 colon. The TGI with ACHN renal is 50 µM and 6.82 µM; in the assay with HOP-92 NSCLC, 20.6 µM and 18.2 µM; in the assay with NCI-H226 lung it was 34.1 µM; in the assay on CAKI-1 renal, 12.1 µM and 16.2 µM. For the same molecule, the GI50 is 10.5 µM in the assay with KM12 colon; 4.93 µM in the assay on U251 CNS; 12.4 µM in the assay on UACC-62 melanoma; 6.31 µM in the assay on COLO 205 colon; 2.16 µM in the assay with ACHN renal; 5.51 µM in the assay on HOP-92 NSCLC. In addition, in the assay on CAKI-1 renal, the GI50 was 4.65 µM.
